For 43 molecules, EC50 results are on record in patent publication US10774052B2, “Heteroaryl compounds and uses thereof” (Celgene CAR LLC, priority 2013, dated 2020).

In one experiment the test system is pFGFR4 in Huh7 cells. Nature of the experiment: FGFR4 signaling, pFGFR4 (Huh); MSD (Method B). The conditions noted are these: Homo sapiens. Type of experiment: cell-based.
Experiment [1] concerns pFGFR4 in MDA-MB-453 cells. Nature of the experiment: FGFR4 signaling, pFGFR4 (MDA); Western blot (Method A), MSD (Method B), ELISA (Method C). Type of experiment: cell-based. The method, then:
The MDA-MB-453 protein concentrations were determined by a BCA Assay (Pierce, Rockford, Ill.). A sample of 50-100 μg of each lysate was separated by a 4-12% gradient (SDS-PAGE (Invitrogen)), transferred to a nitrocellulose membrane (Biorad, Hercules, Calif.), and probed with specific antibodies. Phospho-protein signals were quantitated using Odyssey Infrared Imaging (Li-Cor Biosciences).
To assess phospho-FGFR signaling, the blots were probed with anti-Phospho-FGFR (Y653/Y654) and total anti-FGFR antibodies. The phospho-FGFR signal was normalized to total FGFR expression for each sample.
In general terms: Immunoblotting shows a protein as a band on a membrane.

Where [2] appears, read: Huh-7, Huh7 cells, read-out: Signaling EC50 (nM) pFGFR4 (Huh).
The mark [3] stands for this setting: Homo sapiens, MDA-MB-453 cells, Method B (MSD) for signaling EC50 determination.
The mark [4] stands for this setting: Homo sapiens, MDA-MB-453, MDA-MB-453 cells, Method B (MSD) for signaling EC50 determination.

Like-named read-outs stand apart in the source and are kept apart here.

By EC50 is commonly meant the concentration needed to bring the measured effect to its halfway point. As to `C=CC(=O)NC1COCC1Nc1ncc2c(n1)N(Cc1ccn(C)n1)C(=O)N(c1c(Cl)c(OC)cc(OC)c1Cl)C2` (stereo not shown) [Compound I-215], the EC50 with pFGFR4 in Huh7 cells (setting [2]) was less than 100 nM.

`C=CC(=O)NC1COCC1Nc1ncc2c(n1)N(C)C(=O)N(c1cc(C(=O)Nc3cccc(C(C)(C)C)c3)ccc1Cl)C2` (stereo not shown) [Compound I-247]: the EC50 in the experiment on pFGFR4 in Huh7 cells (setting [2]) is less than 100 nM.

In the case of `C=CC(=O)N[C@H]1CCCC[C@H]1Nc1ncc2c(n1)N(C)C(=O)N(c1c(Cl)c(OCC)cc(OCC)c1Cl)C2` [Compound I-219], the EC50 in the experiment on pFGFR4 in Huh7 cells (setting [2]) was 501 to 999 nM.

On to `C=CC(=O)NC1CCCCC1Nc1ncc2c(n1)N(C)C(=O)N(c1c(Cl)c(OC)cc(OC)c1Cl)C2` (racemic) [Compound I-19], for which, in the experiment with pFGFR4 in Huh7 cells (Huh-7, read-out: Signaling EC50 (nM) pFGFR4 (Huh)), the EC50 was in the range of 101 to 500 nM.

As for `C=CC(=O)Nc1cc(OC)ccc1Nc1ncc2cc(-c3c(Cl)c(OC)cc(OC)c3Cl)c(=O)n(C)c2n1` [Compound I-242], the EC50 in the experiment with pFGFR4 in Huh7 cells (setting [2]) was less than 100 nM.

Regarding `C=CC(=O)N[C@H]1CCCC[C@H]1Nc1ncc2c(n1)N(C)C(=O)N(c1c(F)c(OC)cc(OC)c1Br)C2` [Compound I-228], the EC50 in the experiment with pFGFR4 in Huh7 cells (setting [2]) was in the range of 101 to 500 nM.

Take `C=CC(=O)NC1COCC1Nc1ncc2c(n1)N(C)C(=O)N(c1cc(OC)c(OC)c(OC)c1)C2` (stereo not shown) [Compound I-207]: in the experiment with pFGFR4 in Huh7 cells (setting [2]), the EC50 was greater than 1000 nM.

With `C=CC(=O)NC1COCC1Nc1ncc2c(n1)N(C)C(=O)N(c1c(Cl)c(OCC)cc(OCC)c1Cl)C2` (stereo not shown) [Compound I-205], in the experiment with pFGFR4 in Huh7 cells (setting [2]), the EC50 fell in the range of 101 to 500 nM.

For `C=CC(=O)Nc1ccccc1Nc1ncc2c(n1)N(CC1CCN(C(=O)OC(C)(C)C)CC1)C(=O)N(c1cc(OC)cc(OC)c1)C2` [Compound I-60], the EC50 in experiment [1] (setting [3]) lay in the range of 101 to 500 nM.

`C=CC(=O)Nc1ccccc1Oc1ncc2c(n1)N(C)C(=O)N(c1c(Cl)c(OC)cc(OC)c1Cl)C2` [Compound I-65] gave an EC50 in experiment [1] (setting [4]) of 101 to 500 nM.

As to `C=CC(=O)Nc1ccccc1Nc1ncc2c(n1)N(C)C(=O)N(C1CCCCC1)C2` [Compound I-52], in experiment [1] (setting [3]), the EC50 was greater than 1000 nM.

`C=CC(=O)Nc1cc(C(=O)NC2CCN(C)CC2)ccc1Nc1ncc2c(n1)N(C)C(=O)N(c1c(Cl)c(OC)cc(OC)c1Cl)C2` [Compound I-150] registered an EC50 in experiment [1] (setting [3]) of less than 100 nM.

In turn, `C=CC(=O)Nc1cc(N2CCN(CC)CC2)ccc1Nc1ncc2c(n1)N(C)C(=O)N(c1cc(OC)cc(OC)c1)C2` [Compound I-15] gave an EC50 in experiment [1] (setting [3]) of less than 100 nM.

In experiment [1] (setting [3]), `C=CC(=O)Nc1ccccc1Nc1ncc2c(n1)N(CC1CC1)C(=O)N(c1cc(OC)cc(OC)c1F)C2` [Compound I-109] displayed a concentration for a half-maximal effect (EC50) of less than 100 nM.

Consider `C=CC(=O)Nc1cc(Cl)c(Cl)cc1Nc1ncc2c(n1)N(Cc1ccccc1)C(=O)N(c1c(Cl)c(OC)cc(OC)c1Cl)C2` [Compound I-11], for which the EC50 in experiment [1] (setting [3]) is greater than 1000 nM.

As to `C=CC(=O)Nc1ccccc1Nc1ncc2c(n1)N(Cc1ccc(Cl)c(OC)c1)C(=O)N(c1c(Cl)c(OC)cc(OC)c1Cl)C2` [Compound I-24], in experiment [1] (setting [3]), the EC50 was less than 100 nM.

In the case of `C=CC(=O)Nc1cc(N2CCN(C(=O)OC(C)(C)C)CC2)ccc1Nc1ncc2c(n1)N(C)C(=O)N(c1c(Cl)c(OC)cc(OC)c1Cl)C2` [Compound I-62], the EC50 in experiment [1] (setting [3]) was less than 100 nM.

In the case of `C=CCN1C(=O)N(c2cc(OC)cc(OC)c2)Cc2cnc(Nc3ccccc3NC(=O)C=C)nc21` [Compound I-32], in experiment [1] (setting [3]), the EC50 was less than 100 nM.

In experiment [1] (setting [3]), `C=CC(=O)Nc1ccc(-c2nccs2)cc1Nc1ncc2c(n1)N(C)C(=O)N(c1cc(OC)cc(OC)c1)C2` [Compound I-78] returned an EC50 of 101 to 500 nM.

`C=CC(=O)NC1CCCCC1Nc1ncc2c(n1)N(C1CCCNC1)C(=O)N(c1cc(OC)cc(OC)c1)C2` (racemic) [Compound I-46] came in with an EC50 in experiment [1] (setting [4]) greater than 1000 nM.

In experiment [1] (setting [3]), `C=CC(=O)Nc1cc(N2CCN(C(=O)CCC(=O)O)CC2)ccc1Nc1ncc2c(n1)N(C)C(=O)N(c1c(Cl)c(OC)cc(OC)c1Cl)C2` [Compound I-123] registered an EC50 of less than 100 nM.

Take `C=CC(=O)Nc1cc(-c2nccs2)ccc1Nc1ncc2c(n1)N(C)C(=O)N(c1cc(OC)cc(OC)c1)C2` [Compound I-84]: the EC50 in experiment [1] (setting [4]) is 101 to 500 nM.

As to `C=CC(=O)Nc1ccccc1Nc1ncc2c(n1)N(Cc1cccc(C#N)c1)C(=O)N(c1cc(OC)cc(OC)c1)C2` [Compound I-90], the EC50 in experiment [1] (setting [3]) was in the range of 101 to 500 nM.

In experiment [1] (setting [3]), `C=CC(=O)NC1CCCCC1Nc1ncc2c(n1)N(Cc1cccnc1)C(=O)N(c1c(Cl)c(OC)cc(OC)c1Cl)C2` (racemic) [Compound I-35] showed a concentration for a half-maximal effect (EC50) of 101 to 500 nM.

Turning to `C=CC(=O)Nc1ccccc1Nc1ncc2c(n1)N(CCC(O)CO)C(=O)N(c1cc(OC)cc(OC)c1)C2` (stereo not shown) [Compound I-58], the EC50 in experiment [1] (setting [3]) lay within 101 to 500 nM.

`C=CS(=O)(=O)Nc1ccccc1Nc1ncc2c(n1)N(C)C(=O)N(c1cc(OC)cc(OC)c1)C2` [Compound I-67]: the EC50 in experiment [1] (setting [3]) was less than 100 nM.

The molecule `C=CC(=O)Nc1ccccc1Nc1ncc2c(n1)N(C1CC1)C(=O)N(c1c(Cl)c(OC)cc(OC)c1Cl)C2` [Compound I-23] displayed a 50% effective concentration (EC50) in experiment [1] (setting [3]) of less than 100 nM.

In experiment [1] (Homo sapiens, MDA-MB-453 cells, Method A (Western blot) for signaling EC50 determination), `C=CC(=O)NCc1ccccc1Nc1ncc2c(n1)N(Cc1cccc(NC(=O)CC)c1)C(=O)N(c1c(Cl)c(OC)cc(OC)c1Cl)C2` [Compound I-179] showed an EC50 of less than 100 nM.

In the case of `C=CC(=O)N[C@@H]1CCCC[C@@H]1Nc1ncc2c(n1)N(Cc1ccccc1)C(=O)N(c1c(Cl)c(OC)cc(OC)c1Cl)C2` [Compound I-66], the EC50 in experiment [1] (setting [3]) is greater than 1000 nM.

Consider `C=CC(=O)Nc1ccccc1Nc1ncc2c(n1)N(Cc1cscn1)C(=O)N(c1c(Cl)c(OC)cc(OC)c1Cl)C2` [Compound I-86], for which the concentration giving a half-maximal response (EC50) in experiment [1] (setting [3]) was less than 100 nM.

For `C=CC(=O)Nc1ccccc1Nc1ncc2c(n1)N(Cc1nccs1)C(=O)N(c1c(Cl)c(OC)cc(OC)c1Cl)C2` [Compound I-91], the EC50 in experiment [1] (setting [4]) is less than 100 nM.

In experiment [1] (setting [3]), `C=CC(=O)Nc1ccccc1Nc1ncc2c(n1)N(C1CC1)C(=O)N(c1cc(OC)cc(OC)c1)C2` [Compound I-34] displayed a half-maximal effective concentration (EC50) of less than 100 nM.

`C=CC(=O)Nc1ccccc1Nc1ncc2c(n1)N(CC)C(=O)N(CC)C2` [Compound I-120]: in experiment [1] (setting [4]), the EC50 is greater than 1000 nM.

`C=CC(=O)NC1CCCCC1Nc1ncc2c(n1)N(C)C(=O)N(c1cc(OC)cc(OC)c1)C2` (racemic) [Compound I-18] had an EC50 in experiment [1] (setting [4]) greater than 1000 nM.

Take `C=CC(=O)N[C@H]1CCCC[C@H]1Nc1ncc2c(n1)N(Cc1cnn(C)c1)C(=O)N(c1c(Cl)c(OC)cc(OC)c1Cl)C2` [Compound I-148]: the EC50 in experiment [1] (setting [3]) was less than 100 nM.

In experiment [1] (setting [3]), `C=CC(=O)Nc1cc(-c2cnn(C)c2)ccc1Nc1ncc2c(n1)N(C)C(=O)N(c1c(Cl)c(OC)cc(OC)c1Cl)C2` [Compound I-141] registered an EC50 of less than 100 nM.

The molecule `C=CC(=O)Nc1ccc(C)cc1Nc1ncc2c(n1)N(C)C(=O)N(c1cc(OC)cc(OC)c1)C2` [Compound I-49] gave an EC50 in experiment [1] (setting [3]) of 501 to 999 nM.

Molecule `C=CC(=O)Nc1cc(C2CCN(CC)CC2)ccc1Nc1ncc2c(n1)N(C)C(=O)N(c1cc(OC)cc(OC)c1)C2` [Compound I-54] displayed an EC50 in experiment [1] (setting [3]) of 101 to 500 nM.

For the molecule `C=CC(=O)Nc1cc(C(F)(F)F)ccc1Nc1ncc2c(n1)N(Cc1ccccc1)C(=O)N(c1c(Cl)c(OC)cc(OC)c1Cl)C2` [Compound I-10], the EC50 in experiment [1] (MDA-MB-453 cells, Method B (MSD) for signaling EC50 determination) was greater than 1000 nM.

In experiment [1] (setting [3]), `C=CC(=O)NC1CCCCC1Nc1ncc2c(n1)N(Cc1cccc(NS(C)(=O)=O)c1)C(=O)N(c1c(Cl)c(OC)cc(OC)c1Cl)C2` (racemic) [Compound I-89] yielded an EC50 of 101 to 500 nM.

Regarding `C=CC(=O)Nc1ccccc1Nc1ncc2c(n1)N(C)C(=O)N(c1cc(OC)cc(OC)c1Cl)C2` [Compound I-75], the EC50 in experiment [1] (setting [3]) is less than 100 nM.

Consider `C=CC(=O)Nc1cc(N2CCN(CCOC)CC2)ccc1Nc1ncc2c(n1)N(C)C(=O)N(c1cc(OC)cc(OC)c1)C2` [Compound I-20], for which the EC50 in experiment [1] (setting [3]) is less than 100 nM.

On to `C=CC(=O)Nc1ccccc1Nc1ncc2c(n1)N(C)C(=O)N(c1ccccc1)C2` [Compound I-38], for which the EC50 in experiment [1] (setting [4]) was greater than 1000 nM.
